This note sets out measurements from article PMC11965977, “Selective Antiproliferative and Apoptotic Effects of 2,6‐Diketopiperazines on MDA‐MB‐231 Triple‐Negative Breast Cancer” (Chemical Biology & Drug Design, 2025).

Broadly, the IC50 is the concentration needed to halve the response being measured. Usually viability stands for a per cent measure of how many cells are alive, often set against a control. A lower viability goes with more harm to the cells.

Holding throughout (assay type): cell-based
The subject of data set [1] is MDA‐MB‐231 triple‐negative breast cancer cells. Briefly: Antiproliferative activity by MTT assay on MDA‐MB‐231 cell line. The following applies: Homo sapiens, 24 h treatment, 1% DMSO, mean ± standard deviation of three separate determinations, read-out: IC50 of inhibitory activity on MDA‐MB‐231 triple‐negative breast cancer cells. Here is the method: The antiproliferative activity of 2,6‐diketopiperazines 1, stereoisomers (S)‐2a‐14a, and (R)‐2b‐4b, 6b‐8b, and 11b‐14b was evaluated by the MTT assay on the MDA‐MB‐231 cell line using TSA as positive control at 50 μM. […] Compounds 1 and both (S) and (R) enantiomers reveal differences in their inhibitory effects.
(§1) Cell lines of the MDA‐MB‐231 of TNBC and VERO from healthy kidney cells used in this work were donated by ‘National Institute of Cancerology of the Ministry of Health’ from Mexico. MDA‐MB‐231 and Vero cells preserved at −70°C in DMEM F12 medium Gibco, 10% FBS, 5% DMSO, and 5% glycerol were thawed at 37°C and resuspended in DMEM F12 medium, supplemented with 10% FBS and antibiotic (penicillin 100 UI/mL, streptomycin 100 μg/mL and amphotericin 250 μg/mL) and then centrifuged at 2000 rpm for 10 min. The supernatant was removed, and the cells were resuspended in DMEM F12 medium, supplemented with 10% FBS and antibiotic, seeded in 25 cm^2 culture flasks Corning, and incubated at 37°C with 5% CO2 until at least 90% confluence was reached.
(§2) The MTT assay was used to measure metabolically active cells. Cells were seeded into 96‐well microtiter plates Corning at […] in 100 μL of DMEM‐F12 medium supplemented with 10% FBS and antibiotic Gibco (penicillin 100 IU/mL, streptomycin 100 μg/mL and amphotericin 250 μg/mL). After reaching confluence, cells were treated for 24 h with compounds 1, (S)‐2–14 and (R)‐2–4, 6–8, 11–14 stereoisomers, at concentrations of […], 0.00229, 0.0073, 0.0243, 0.081, 0.27, 0.9, 3.0, 10.0, and 12.0 mM at 1% DMSO, with compounds 1, (S)‐2a, ‐4a, and ‐5a at concentrations of 0.00066, 0.00229, 0.0073, 0.0243, 0.081, 0.27, 0.9, 3.0,10.0, and 12 mM at 1% DMSO, using DMSO 1% in DMEM F12 as the negative control and TSA as the positive control at 50 μM (Sanaei and Kavoosi [2020]). Post‐treatment, cell viability was measured by the conventional MTT dye‐reduction assay. Thus, 20 μL of MTT reagent (5 mg/mL) in PBS 1X was added to each well and incubated at 37 °C for 4 h. Viable cells with active mitochondria reduced the MTT to an insoluble purple formazan precipitate that was solubilized with the subsequent addition of 50 μL of DMSO. The formazan dye was measured spectrophotometrically using a microplate reader Molecular Devices. The cytotoxic impact of each treatment was quantified by determining cell viability as a percentage relative to untreated control cells, referred to as the percentage of control. This is calculated using the formula: [(A595 or A570 nm reading of treated cells)/(A595 or A570 nm reading of untreated cells)] × 100 (Mosmann [1983]; Plumb [1999]). All assays were performed in triplicate. Cell proliferation percentages relative to growth control cells were calculated, and inhibitory concentration 50 (IC50) values were calculated using a regression analysis of the concentration/antiproliferative activity ratio and analyzed using the statistical package prism (Graph‐Pad Software, San Diego, CA, USA).
For orientation: Formazan colour is commonly taken as a measure of viable cells.

A short description of data set [2]: Cytotoxicity by MTT assay on healthy Vero kidney cell line. The following applies: African green monkey, Vero kidney cells (healthy), even at 12 mM concentrations (data not shown). The procedure: (§3) Compounds 1, (S)‐2a, −4a, and ‐5a presented the lowest IC50 values of all the compounds tested (see Table 1), so it was interesting to investigate their toxicity in healthy cells.
as §1, §2

Another data set relates to Vero kidney cell line. The description is as above. The following applies: concentrations 0.00066 to 12 mM. Here is the method: as §3, §1, §2
The next data set concerns MDA‐MB‐231 cell line. Kind of data set: Apoptotic induction by Annexin V‐FITC/7AAD flow cytometry on MDA‐MB‐231 cell line. The conditions noted are these: MDA‐MB‐231, compound at its IC50 concentration. The text has this:
This work presents the apoptotic induction of the 2,6‐DKPs 1, (S)‐stereoisomers 2a to 6a derived from Gly, Ala, Val, Leu, Ile, and Pro α‐amino acids, respectively; as well as 9a to 14a derived from Tyr, Tyr (where the OH group is protected with an acetamide group), Ser, Thr, Met, and Trp α‐amino acids, respectively on the MDA‐MB‐231 cell line by flow cytometry. In this assay, 1% DMSO was used as a negative control and TSA as a positive control (Figure 2). The inhibition of proliferation may be due, among other mechanisms, to arrest in the cell cycle, and/or to an induction of cell death. In the second case, it is important to differentiate whether this death is necrotic inflammatory or apoptotic non‐inflammatory, which is desirable for anti‐cancer agents. […]
FIGURE 5 Flow Cytometry Analysis Strategy. […] A total of 5000/seg events were analyzed for each group.
Assays were performed using the commercial kit Annexin V labeled with the fluorochrome fluorescein isothiocyanate (FITC) BD Biosciences. […] After incubation time, the quantification of MDA‐MB‐231 cells was performed by flow cytometry with a FITC and 7AAD signal detector (FL1) and (FL3) on a FACS aria (Becton Dickinson). 5000/seg events were analyzed. Apoptotic induction percentages were calculated (Graph‐Pad Software, San Diego, CA, USA).
For orientation: Flow cytometry measures light scatter and fluorescence of single cells or particles in a stream.

Turning to `C[C@H]1NCC(=O)NC1=O` [(R)‐2b], the IC50 in data set [1] turned out to be 21 µM.

Regarding `CC(C)[C@H]1NCC(=O)NC1=O` [(R)‐3b], in data set [1], the concentration for half-maximal inhibition (IC50) was found to be 822 ± 1350 µM.

With `CC(C)C[C@H]1NCC(=O)NC1=O` [(R)‐4b], the IC50 in data set [1] was 265 µM.

As to `O=C1CN2CCC[C@@H]2C(=O)N1` [(R)‐6b], in data set [1], the half-inhibitory concentration (IC50) came to 584 ± 1010 µM.

As to `O=C1CN[C@H](Cc2ccccc2)C(=O)N1` [(R)‐7b], the IC50 in data set [1] amounted to 2150 ± 202 µM.

Turning to `O=C1CN[C@H](Cc2ccc(OCc3ccccc3)cc2)C(=O)N1` [(R)‐8b], in data set [1], the 50% inhibitory concentration (IC50) is 3640 ± 1220 µM.

As for `O=C1CN[C@H](CO)C(=O)N1` [(R)‐11b], the IC50 in data set [1] was determined as 801 ± 208 µM.

Turning to `CC(O)[C@H]1NCC(=O)NC1=O` (stereo partly drawn) [(R)‐12b], the IC50 in data set [1] was 1720 ± 85 µM.

For `CSCC[C@H]1NCC(=O)NC1=O` [(R)‐13b], the 50% inhibitory concentration (IC50) in data set [1] came out at 1310 ± 284 µM.

For the compound `O=C1CN[C@H](Cc2c[nH]c3ccccc23)C(=O)N1` [(R)‐14b], in data set [1], the IC50 amounted to 357 ± 190 µM.

In data set [2], `C[C@@H]1NCC(=O)NC1=O` [(S)‐2a] returned a viability at 24 h, 12 mM of 100%. In the data set on Vero kidney cell line, the “Toxicity on Vero kidney cell line (in words)” value (“Toxicity” for short) was “did not exhibit toxicity”. Moreover, the 50% inhibitory concentration (IC50) in data set [1] was found to be 4.6 ± 0.169 µM.

For `CC(C)[C@@H]1NCC(=O)NC1=O` [(S)‐3a], the half-inhibitory concentration (IC50) in data set [1] was 17 µM.

The compound `CC(C)C[C@@H]1NCC(=O)NC1=O` [(S)‐4a] had a viability at 24 h, 12 mM in data set [2] of 100%. Besides, in the data set on Vero kidney cell line, the “Toxicity” value was “did not exhibit toxicity”. Moreover, the IC50 in data set [1] amounted to 5.5 ± 0.235 µM.

In the case of `CCC(C)[C@@H]1NCC(=O)NC1=O` (stereo partly drawn) [(S)‐5a], the viability at 24 h, 12 mM in data set [2] amounted to 100%. The “Toxicity” value in the data set with Vero kidney cell line is listed as “did not exhibit toxicity”. Besides, the IC50 in data set [1] was 6.8 ± 0.028 µM.

Regarding `O=C1CN2CCC[C@H]2C(=O)N1` [(S)‐6a], the 50% inhibitory concentration (IC50) in data set [1] is 1020 ± 167 µM.

With `O=C1CN[C@@H](Cc2ccccc2)C(=O)N1` [(S)‐7a], the IC50 in data set [1] came out at 155 ± 322 µM.

As to `O=C1CN[C@@H](Cc2ccc(OCc3ccccc3)cc2)C(=O)N1` [(S)‐8a], the IC50 in data set [1] worked out at 4940 ± 733 µM.

Take `O=C1CN[C@@H](Cc2ccc(O)cc2)C(=O)N1` [(S)‐9a]: the 50% inhibitory concentration (IC50) in data set [1] was 1669 ± 11 µM.

Turning to `NC(=O)COc1ccc(C[C@@H]2NCC(=O)NC2=O)cc1` [(S)‐10a], the half-maximal inhibitory concentration (IC50) in data set [1] worked out at 469 ± 860 µM.

Turning to `O=C1CN[C@@H](CO)C(=O)N1` [(S)‐11a], in data set [1], the IC50 worked out at 49 ± 26 µM.

As to `CC(O)[C@@H]1NCC(=O)NC1=O` (stereo partly drawn) [(S)‐12a], in data set [1], the half-inhibitory concentration (IC50) turned out to be 2100 ± 249 µM. In addition, in the data set on MDA‐MB‐231 cell line, the “Decrease in apoptotic induction at 48 h compared to the 24 h test” value was 3%.

As for `CSCC[C@@H]1NCC(=O)NC1=O` [(S)‐13a], the half-maximal inhibitory concentration (IC50) in data set [1] is 978 ± 96 µM.

In the case of `O=C1CN[C@@H](Cc2c[nH]c3ccccc23)C(=O)N1` [(S)‐14a], in data set [1], the IC50 is 12 µM.

On to `O=C1CNCC(=O)N1` [Compound 1], for which, in data set [2], the viability at 24 h, 12 mM was determined as 100%. Moreover, the “Toxicity” value with Vero kidney cell line is “did not exhibit toxicity”. Also, the IC50 in data set [1] was 4.6 ± 0.019 µM.
